The compounds below were run on Boophilus microplus (assay: Boophilus microplus test (injection)). Settings: application rate 20 μg/animal, adult engorged females, after 7 days.
Assay type: in vivo
Description: Solvent: dimethyl sulfoxide
To produce a suitable preparation of active compound, 10 mg of active compound are dissolved in 0.5 ml solvent, and the concentrate is diluted with solvent to the desired concentration. Five adult engorged female ticks (Boophilus microplus) are injected with compound solution into the abdomen. Ticks are transferred into replica plates and incubated in a climate chamber for a period of time. Egg deposition of fertile eggs is monitored. After 7 days mortality in % is determined 100% means that all eggs are infertile; 0% means that all eggs are fertile.

Structure (SMILES) | activity (100% means that all eggs are infertile) [%]
N#Cc1ccc(N2CCC(c3cc(Cl)c(Cl)c(Cl)c3)(C(F)(F)F)C2)cc1C(F)(F)F (stereo not drawn) [7-12] | 100
C=CC(=O)NCc1ccc(N2CCC(c3cc(Cl)cc(Cl)c3)(C(F)(F)F)C2)cc1C(F)(F)F (stereo not drawn) [1-173] | 100
CNC(=O)N(C)Cc1ccc(N2CCC(c3cc(Cl)cc(Cl)c3)(C(F)(F)F)C2)cc1C(F)(F)F (stereo not drawn) [1-258] | 100
O=C(CC(F)(F)F)NCc1cnc(N2CCC(c3cc(C(F)(F)F)cc(C(F)(F)F)c3)(C(F)(F)F)C2)nc1C(F)(F)F (stereo not drawn) [3-150] | 100
CN(Cc1ccc(N2CCC(c3cc(Cl)cc(Cl)c3)(C(F)(F)F)C2)cc1Cl)C(=O)CC(F)(F)F (stereo not drawn) [1-75] | 100
CC(C)NC(=O)NCc1ccc(N2CCC(c3cc(C(F)(F)F)cc(C(F)(F)F)c3)(C(F)(F)F)C2)cc1C(F)(F)F (stereo not drawn) [1-304] | 100
O=C(NCc1ccccn1)c1cnc(N2CCC(c3cc(C(F)(F)F)cc(C(F)(F)F)c3)(C(F)(F)F)C2)nc1C(F)(F)F (stereo not drawn) [2-35] | 100
O=C(NCc1ccc(N2CCC(c3cc(Cl)c(Cl)c(Cl)c3)(C(F)(F)F)C2)cc1Cl)C1CC1 (stereo not drawn) [1-339] | 100
CC(C)C(=O)NCc1ccc(N2CCC(c3cc(Cl)cc(Cl)c3)(C(F)(F)F)C2)cc1Cl (stereo not drawn) [1-3] | 100
C#CCNC(=O)NCc1ccc(N2CCC(c3cc(Cl)cc(Cl)c3)(C(F)(F)F)C2)cc1Cl (stereo not drawn) [1-88] | 100
O=C(NCc1ccc(N2CCC(c3cc(Cl)cc(Cl)c3)(C(F)(F)F)C2)cc1Cl)C(F)F (stereo not drawn) [1-21] | 100
CC(Br)C(=O)NCc1ccc(N2CCC(c3cc(Cl)cc(Cl)c3)(C(F)(F)F)C2)cc1Cl (stereo not drawn) [1-458] | 100
CC(C)(C)OC(=O)NCc1ccc(N2CCC(c3cc(Cl)cc(Cl)c3)(C(F)(F)F)C2)cc1C(F)(F)F (stereo not drawn) [1-270] | 100
C=CCS(=O)(=O)CC(=O)NCc1ccc(N2CCC(c3cc(C(F)(F)F)cc(C(F)(F)F)c3)(C(F)(F)F)C2)cc1C(F)(F)F (stereo not drawn) [1-971] | 100
O=C(NCc1ccc(N2CCC(c3cc(Cl)cc(Cl)c3)(C(F)(F)F)C2)cc1Cl)NC1CC1 (stereo not drawn) [1-81] | 100
CCC(=O)NCc1ccc(N2CCC(c3cc(Cl)c(Cl)c(Cl)c3)(C(F)(F)F)C2)cc1Br (stereo not drawn) [1-345] | 100
CC(=O)NCc1cnc(N2CCC(c3cc(Cl)c(Cl)c(Cl)c3)(C(F)(F)F)C2)nc1C(F)(F)F (stereo not drawn) [3-141] | 100
CSCC(=O)NCc1ccc(N2CCC(c3cc(Cl)cc(Cl)c3)(C(F)(F)F)C2)cc1Cl (stereo not drawn) [1-42] | 100
C=CCC(=O)NCc1ccc(N2CCC(c3cc(Cl)cc(Cl)c3)(C(F)(F)F)C2)cc1C(F)(F)F (stereo not drawn) [1-180] | 100

Structure (SMILES) | activity (100% means that all eggs are infertile) [%]
CCCNC(=O)NCc1ccc(N2CCC(c3cc(C(F)(F)F)cc(C(F)(F)F)c3)(C(F)(F)F)C2)cc1C(F)(F)F (stereo not drawn) [1-303] | 100
CCS(=O)(=O)CC(=O)NCc1ccc(N2CCC(c3cc(Cl)cc(Cl)c3)(C(F)(F)F)C2)cc1C(F)(F)F (stereo not drawn) [1-501] | 100
C=CCSCC(=O)NCc1ccc(N2CCC(c3cc(Cl)c(Cl)c(Cl)c3)(C(F)(F)F)C2)cc1C(F)(F)F (stereo not drawn) [1-732] | 100
CS(=O)(=O)CC(=O)NCc1ccc(N2CCC(c3cc(Cl)c(Cl)c(Cl)c3)(C(F)(F)F)C2)cc1C(F)(F)F (stereo not drawn) [1-730] | 100
C=CCC(=O)NCc1ccc(N2CCC(c3cc(Cl)cc(Cl)c3)(C(F)(F)F)C2)cc1Cl (stereo not drawn) [1-36] | 100
CCC(=O)NCc1cnc(N2CCC(c3cc(C(F)(F)F)cc(C(F)(F)F)c3)(C(F)(F)F)C2)nc1C(F)(F)F (stereo not drawn) [3-148] | 100
CCNC(=O)NCc1ccc(N2CCC(c3cc(Cl)c(Cl)c(Cl)c3)(C(F)(F)F)C2)cc1Cl (stereo not drawn) [1-341] | 100
COC(=O)NCc1ccc(N2CCC(c3cc(C(F)(F)F)cc(C(F)(F)F)c3)(C(F)(F)F)C2)cc1C(F)(F)F (stereo not drawn) [1-298] | 100
NCc1ccc(N2CCC(c3cc(Cl)cc(Cl)c3)(C(F)(F)F)C2)cc1C(F)(F)F (stereo not drawn) [1-141] | 100
CCNC(=O)NCc1cnc(N2CCC(c3cc(C(F)(F)F)cc(C(F)(F)F)c3)(C(F)(F)F)C2)nc1C(F)(F)F (stereo not drawn) [3-151] | 100
CC(=O)NC1CCc2cc(N3CCC(c4cc(Cl)c(Cl)c(Cl)c4)(C(F)(F)F)C3)ccc21 (stereo not drawn) [6-267] | 100
CCC(=O)NCc1ccc(N2CCC(c3cc(Cl)c(Cl)c(Cl)c3)(C(F)(F)F)C2)cc1Cl (stereo not drawn) [1-338] | 100
O=C(CC(F)(F)F)NCc1ccc(N2CCC(c3cc(C(F)(F)F)cc(C(F)(F)F)c3)(C(F)(F)F)C2)cc1C(F)(F)F (stereo not drawn) [1-296] | 100
CCCNC(=O)NCc1ccc(N2CCC(c3cc(Cl)cc(Cl)c3)(C(F)(F)F)C2)cc1C(F)(F)F (stereo not drawn) [1-222] | 100
CCOC(=O)NCc1ccc(N2CCC(c3cc(C(F)(F)F)cc(C(F)(F)F)c3)(C(F)(F)F)C2)cc1C(F)(F)F (stereo not drawn) [1-299] | 100
O=C(NCC(F)(F)F)c1sc(N2CCC(c3cc(Cl)cc(Cl)c3)(C(F)(F)F)C2)nc1C(F)(F)F (stereo not drawn) [4-8] | 100
CC(NC(=O)NCc1ccc(N2CCC(c3cc(Cl)cc(Cl)c3)(C(F)(F)F)C2)cc1Cl)C(F)(F)F (stereo not drawn) [1-442] | 100
CCNC(=O)NCc1ccc(N2CCC(c3cc(Cl)c(Cl)c(Cl)c3)(C(F)(F)F)C2)cc1C(F)(F)F (stereo not drawn) [1-330] | 100
O=C(NCc1ccc(N2CCC(c3cc(C(F)(F)F)cc(C(F)(F)F)c3)(C(F)(F)F)C2)cc1Cl)C1CC1 (stereo not drawn) [1-308] | 100

Structure (SMILES) | activity (100% means that all eggs are infertile) [%]
COCC(=O)NCc1ccc(N2CCC(c3cc(Cl)cc(Cl)c3)(C(F)(F)F)C2)cc1Cl (stereo not drawn) [1-40] | 100
O=C(NCc1cnc(N2CCC(c3cc(Cl)c(Cl)c(Cl)c3)(C(F)(F)F)C2)nc1C(F)(F)F)C1CC1 (stereo not drawn) [3-143] | 100
NCc1cnc(N2CCC(c3cc(C(F)(F)F)cc(C(F)(F)F)c3)(C(F)(F)F)C2)nc1C(F)(F)F (stereo not drawn) [3-146] | 100
C=CC[S+]([O-])CC(=O)NCc1ccc(N2CCC(c3cc(Cl)cc(Cl)c3)(C(F)(F)F)C2)cc1C(F)(F)F (stereo not drawn) [1-504] | 100
CSCC(=O)NCc1ccc(N2CCC(c3cc(C(F)(F)F)cc(C(F)(F)F)c3)(C(F)(F)F)C2)cc1C(F)(F)F (stereo not drawn) [1-966] | 100
O=C(NCc1ccc(N2CCC(c3cc(Cl)cc(Cl)c3)(C(F)(F)F)C2)cc1C(F)(F)F)C1CCC1 (stereo not drawn) [1-150] | 100
O=C(NCc1sc(N2CCC(c3cc(Cl)c(Cl)c(Cl)c3)(C(F)(F)F)C2)nc1C(F)(F)F)C1CC1 (stereo not drawn) [5-143] | 100
N#CCC(=O)NCc1ccc(N2CCC(c3cc(Cl)cc(Cl)c3)(C(F)(F)F)C2)cc1C(F)(F)F (stereo not drawn) [1-183] | 100
O=C(NCc1ccc(N2CCC(c3cc(Cl)cc(Cl)c3)(C(F)(F)F)C2)cc1Cl)C1CCC1 (stereo not drawn) [1-8] | 100
CC(=O)CC(=O)NCc1ccc(N2CCC(c3cc(C(F)(F)F)cc(C(F)(F)F)c3)(C(F)(F)F)C2)cc1C(F)(F)F (stereo not drawn) [1-963] | 100
CCC(=O)NCc1ccc(N2CCC(c3cc(C(F)(F)F)cc(C(F)(F)F)c3)(C(F)(F)F)C2)cc1Br (stereo not drawn) [1-312] | 100
O=C(CC(F)(F)F)NCc1cnc(N2CCC(c3cc(Cl)c(Cl)c(Cl)c3)(C(F)(F)F)C2)cc1C(F)(F)F (stereo not drawn) [1-380] | 100
C=CC[S+]([O-])CC(=O)NCc1ccc(N2CCC(c3cc(C(F)(F)F)cc(C(F)(F)F)c3)(C(F)(F)F)C2)cc1C(F)(F)F (stereo not drawn) [1-970] | 100
CC=CC(=O)NCc1ccc(N2CCC(c3cc(Cl)cc(Cl)c3)(C(F)(F)F)C2)cc1Cl (stereo not drawn) [1-30] | 100
CC[S+]([O-])CC(=O)NCc1ccc(N2CCC(c3cc(Cl)cc(Cl)c3)(C(F)(F)F)C2)cc1C(F)(F)F (stereo not drawn) [1-500] | 100
CS(=O)(=O)CC(=O)NCc1ccc(N2CCC(c3cc(Cl)cc(Cl)c3)(C(F)(F)F)C2)cc1C(F)(F)F (stereo not drawn) [1-495] | 100
CCC(=O)NCc1ccc(N2CCC(c3cc(Cl)cc(Cl)c3)(C(F)(F)F)C2)cc1Br (stereo not drawn) [1-285] | 100
O=C(NCc1ccc(N2CCC(c3cc(Cl)cc(Cl)c3)(C(F)(F)F)C2)cc1Cl)C1CC1(Cl)Cl (stereo not drawn) [1-24] | 100
CC(C)(C)OC(=O)NC1CCc2cc(N3CCC(c4cc(Cl)c(Cl)c(Cl)c4)(C(F)(F)F)C3)ccc21 (stereo not drawn) [6-802] | 100
